We go through 15 compounds from EP4748837A1, “AROMATIC AMIDE DERIVATIVE, AND PREPARATION METHOD THEREFOR AND USE THEREOF” (Zhejiang Hisun Pharmaceutical Co., Ltd., priority 2023, dated 2025).

The test system of one assay is OVCAR-3 cells. In words: Inhibition of OVCAR-3 cell proliferation (CellTiter-Glo cell viability). Format: cell-based. The conditions noted are these: Homo sapiens; OVCAR-3 cells (TP53 R248Q mutation), 72 hours culture with compound; read-out: IC50. The procedure:
Influences of the compounds of the present invention on OVCAR-3 cell proliferation were determined by the following method. OVCAR-3 cells (containing TP53 R248Q mutation) were purchased from the Cell Bank of Shanghai Institute of Biochemistry and Cell Biology, Chinese Academy of Sciences, and cultured in an RPMI 1640 culture medium containing 10% fetal bovine serum, 100 U penicillin and 100 µg/mL streptomycin. A cell viability was determined by a CellTiter-Glo® Luminescent Cell Viability Assay kit (Promega, article number G7573).
(§1) An experimental method was operated according to steps in the instruction of the kit, which was briefly described as follows: a test compound was dissolved in DMSO first to prepare a 10 mM stock solution, then the stock solution was diluted with the culture medium to prepare a test sample, and a final concentration of the compound was in a range of 1000 nM-0.015 nM. Cells in a logarithmic growth phase were inoculated into a 96-well cell culture plate at a density of 1000 cells per well, cultured in a 5% CO2 incubator at 37°C overnight, and then the test compound was added to continuously culture for 72 hours. After the culture was ended, 50 uL of CellTiter-Glo detection solution was added to each well , shaken for 5 minutes, and then allowed to stand for 10 minutes, and subsequently, a luminance value of each well of the sample was read by a microplate reader in a Luminescence mode. By comparing with the numerical value of a control group (0.3% DMSO), a percentage inhibition rate of the compound at each concentration point was calculated, and then nonlinear regression analysis was carried out based on concentration logarithm-inhibition rate of the compound in GraphPad Prism 5 software, so as to obtain an IC50 value of the compound for inhibiting the cell proliferation, which was as shown in Table 1. Table 1 IC50 data of the compounds of the present invention for inhibiting OVCAR-3 cell proliferation

A further assay has as its target T1, recombinant human KIF18A (Homo sapiens, UniProt Q8NI77).
T1 construct: purchased GenScript
In words: Inhibition of KIF18A enzyme activity (ADP-Glo assay). It is filed as biochemical. To be noted: recombinant human KIF18A 100 nM, ATP 60 µM, tubulin, paclitaxel; read-out: IC50. Here is the method:
Inhibition degrees of the compounds of the present invention on recombinant human KIF18A enzyme activity in vitro were determined by the following method. An ADP-Glo™ Kinase Assay kit (article number V9102) from Promega Company was used in this method. Detailed experimental operation referred to the instruction of the kit.
An experimental process was briefly described as follows: a test compound was dissolved in DMSO first to prepare a stock solution, then the stock solution was gradiently diluted with a reaction buffer A ([…], 0.01% Pluronic F-68), and a final concentration of the test compound in the reaction system was in a range of 10000 nM-0.15 nM; and a KIF18A protein and ATP working solution was prepared by using a reaction buffer B (15 mM Tris, pH 7.5, 10 mM MgCl2, 0.01% Pluronic F-68, 37.5 µg/ml tubulin, 1.25 µM paclitaxel). The reaction was carried out in a 384-well microplate. The test compound and the recombinant human KIF18A protein (final concentration of 100 nM, entrusted to GenScript for expression) were added into the wells and incubated at room temperature for 20 minutes, and subsequently, an ATP solution (component V915A from the ADP-Glo™ Kinase Assay kit, final concentration of 60 µM) was added to the reaction solution and the system was incubated at room temperature for 20 minutes. Subsequently, 5 µL of ADP-Glo Reagent was added to the reaction systemand the system was incubated at room temperature for 50 minutes. Then, 10 µL of Kinase Detection Reagent was added to the reaction system and the system was incubated at room temperature for 30 minutes. After the incubation was ended, a chemiluminiscence intensity value of each well was determined by a microplate reader in a Luminescence mode.

Another assay concerns HT-29 cells. In words: Inhibition of HT-29 cell proliferation (CellTiter-Glo cell viability). It is filed as cell-based. The conditions noted are these: Homo sapiens; HT-29 cells (TP53 R273H mutation), 120 hours culture with compound; read-out: IC50. Here is the method: Influences of the compounds of the present invention on HT-29 cell proliferation were determined by the following method. HT-29 cells (containing TP53 R273H mutation) were purchased from the Cell Bank of Shanghai Institute of Biochemistry and Cell Biology, Chinese Academy of Sciences, and cultured in a McCOY's 5A culture medium containing 10% fetal bovine serum, 100 U penicillin and 100 µg/mL streptomycin. A cell viability was determined by a CellTiter-Glo® Luminescent Cell Viability Assay kit (Promega, article number G7573).
as §1, with “for 120” for “for 72”, “each well,” for “each well ,”, “Table 2.” for “Table 1.”, “Table 2” for “Table 1”, “inhibiting HT-29” for “inhibiting OVCAR-3”

T1 sequence (Q8NI77 whole entry): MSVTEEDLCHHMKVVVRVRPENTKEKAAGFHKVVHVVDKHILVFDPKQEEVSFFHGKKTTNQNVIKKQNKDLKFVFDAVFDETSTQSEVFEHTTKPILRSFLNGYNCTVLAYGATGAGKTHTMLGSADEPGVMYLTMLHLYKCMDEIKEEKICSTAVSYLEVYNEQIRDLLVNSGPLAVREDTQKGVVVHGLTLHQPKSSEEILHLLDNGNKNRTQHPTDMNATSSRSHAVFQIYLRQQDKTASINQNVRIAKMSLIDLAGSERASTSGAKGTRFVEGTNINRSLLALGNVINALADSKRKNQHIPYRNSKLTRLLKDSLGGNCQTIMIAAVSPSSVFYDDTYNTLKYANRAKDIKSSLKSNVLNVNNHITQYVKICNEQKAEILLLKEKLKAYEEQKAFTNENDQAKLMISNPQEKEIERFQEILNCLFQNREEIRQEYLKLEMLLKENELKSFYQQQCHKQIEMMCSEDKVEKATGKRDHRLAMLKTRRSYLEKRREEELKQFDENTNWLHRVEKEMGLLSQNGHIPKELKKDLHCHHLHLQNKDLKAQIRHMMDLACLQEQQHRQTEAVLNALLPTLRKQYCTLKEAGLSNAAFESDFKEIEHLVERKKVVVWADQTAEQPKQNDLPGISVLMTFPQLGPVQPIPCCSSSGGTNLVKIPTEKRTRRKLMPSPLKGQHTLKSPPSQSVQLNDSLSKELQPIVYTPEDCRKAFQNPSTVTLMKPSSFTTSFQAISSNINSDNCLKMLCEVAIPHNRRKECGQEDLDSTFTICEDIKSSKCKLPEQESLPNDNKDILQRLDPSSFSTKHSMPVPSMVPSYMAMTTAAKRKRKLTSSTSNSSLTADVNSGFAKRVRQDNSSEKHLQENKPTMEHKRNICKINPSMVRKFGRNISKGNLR
T1 sequence (P68363 whole entry partner): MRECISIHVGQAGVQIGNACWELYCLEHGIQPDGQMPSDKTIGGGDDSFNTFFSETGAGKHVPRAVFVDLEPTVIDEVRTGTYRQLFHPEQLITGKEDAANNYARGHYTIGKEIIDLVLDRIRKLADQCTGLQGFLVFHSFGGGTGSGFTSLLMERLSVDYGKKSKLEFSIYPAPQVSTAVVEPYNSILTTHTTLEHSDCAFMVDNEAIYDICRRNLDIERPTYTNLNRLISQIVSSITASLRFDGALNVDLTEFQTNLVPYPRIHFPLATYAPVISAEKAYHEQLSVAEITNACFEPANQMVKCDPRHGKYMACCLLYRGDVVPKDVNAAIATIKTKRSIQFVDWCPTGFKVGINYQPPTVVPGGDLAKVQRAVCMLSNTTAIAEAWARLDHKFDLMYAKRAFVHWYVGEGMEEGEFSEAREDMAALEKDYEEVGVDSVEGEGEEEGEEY
T1 sequence (Q9BVA1 whole entry partner): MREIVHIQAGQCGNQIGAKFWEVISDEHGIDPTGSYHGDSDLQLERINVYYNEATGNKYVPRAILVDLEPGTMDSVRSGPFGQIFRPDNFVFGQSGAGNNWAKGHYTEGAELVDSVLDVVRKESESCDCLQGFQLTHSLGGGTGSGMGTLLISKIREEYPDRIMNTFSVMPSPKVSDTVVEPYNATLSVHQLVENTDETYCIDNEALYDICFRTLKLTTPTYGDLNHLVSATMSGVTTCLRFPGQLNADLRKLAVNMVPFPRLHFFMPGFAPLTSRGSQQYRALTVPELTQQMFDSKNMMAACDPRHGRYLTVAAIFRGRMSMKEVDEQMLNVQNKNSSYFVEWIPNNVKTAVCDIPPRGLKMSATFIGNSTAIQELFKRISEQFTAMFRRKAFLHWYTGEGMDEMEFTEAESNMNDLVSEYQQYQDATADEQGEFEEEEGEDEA

On to `CCS(=O)(=O)Nc1ccc(C(=O)Nc2ccc(C(=O)O)c(N3CCC(F)(F)CC3)c2)c(N2CCC3(CC2)CC3)c1` [Example 2, 2-(4,4-difluoropiperidin-1-yl)-4-(4-(ethylsulfonamido)-2-(6-azaspiro[2.5]octan-6-yl)benzamido)benzoic acid], for which the IC50 in the assay with OVCAR-3 cells was 42.9 nM; on recombinant human KIF18A, 29.5 nM.
Turning to `CCS(=O)(=O)Nc1ccc(C(=O)Nc2ccc(-c3cccnn3)c(N3CCC(F)(F)CC3)c2)c(N2CCC3(CC2)CC3)c1` [Example 12, N-(3-(4,4-difluoropiperidin-1-yl)-4-(pyridazin-3-yl)phenyl)-4-(ethylsulfonamido)-2-(6-azaspiro[2.5]octan-6-yl)benzamide], the IC50 came out at 2.5 nM in the assay with OVCAR-3 cells, 3.9 nM with HT-29 cells and 62.4 nM at recombinant human KIF18A.
On the same counts, the results for `CCS(=O)(=O)Nc1ccc(C(=O)Nc2ccc(-c3ccnnc3)c(N3CCC(F)(F)CC3)c2)c(N2CCC3(CC2)CC3)c1` [Example 13, N-(3-(4,4-difluoropiperidin-1-yl)-4-(pyridazin-4-yl)phenyl)-4-(ethylsulfonamido)-2-(6-azaspiro[2.5]octan-6-yl)benzamide] are 5.9 nM, 11.5 nM and 82.9 nM.
As for `CCS(=O)(=O)Nc1ccc(C(=O)Nc2ccc(-c3nccn3C)c(N3CCC(F)(F)CC3)c2)c(N2CCC3(CC2)CC3)c1` [Example 26, N-(3-(4,4-difluoropiperidin-1-yl)-4-(1-methyl-1H-imidazol-2-yl)phenyl)-4-(ethylsulfonamido)-2-(6-azaspiro[2.5]octan-6-yl)benzamide], the IC50 in the assay with HT-29 cells was found to be 30.8 nM; at recombinant human KIF18A it was 106 nM.
Take `CCS(=O)(=O)Nc1ccc(C(=O)Nc2ccc(-n3cnnc3)c(N3CCC(F)(F)CC3)c2)c(N2CCC3(CC2)CC3)c1` [Example 27, N-(3-(4,4-difluoropiperidin-1-yl)-4-(4H-1,2,4-triazol-4-yl)phenyl)-4-(ethylsulfonamido)-2-(6-azaspiro[2.5]octan-6-yl)benz amide]: the values for the IC50 in the assay with OVCAR-3 cells and on recombinant human KIF18A were 8.1 nM and 30.9 nM, respectively.
`CCS(=O)(=O)Nc1ccc(C(=O)Nc2ccc(-c3nnn[nH]3)c(N3CCC(F)(F)CC3)c2)c(N2CCC3(CC2)CC3)c1` [Example 33, N-(3-(4,4-difluoropiperidin-1-yl)-4-(1H-tetrazol-5-yl)phenyl)-4-(ethylsulfonamido)-2-(6-azaspiro[2.5]octan-6-yl)benzamide]: at recombinant human KIF18A, the half-inhibitory concentration (IC50) is 3.8 nM.
On to `CCS(=O)(=O)Nc1ccc(C(=O)Nc2ccc(-c3nnnn3C)c(N3CCC(F)(F)CC3)c2)c(N2CCC3(CC2)CC3)c1` [Example 34, N-(3-(4,4-difluoropiperidin-1-yl)-4-(1-methyl-1H-tetrazol-5-yl)phenyl)-4-(ethylsulfonamido)-2-(6-azaspiro[2.5]octan-6-yl)benzamide], for which the IC50 in the assay with OVCAR-3 cells was found to be 49.8 nM; at recombinant human KIF18A, 90 nM.
For `CCS(=O)(=O)Nc1ccc(C(=O)Nc2ccc(-n3ccnc3)c(N3CCC(C)(O)CC3)c2)c(N2CCC3(CC2)CC3)c1` [Example 42, 4-(ethylsulfonamido)-N-(3-(4-hydroxy-4-methylpiperidin-1-yl)-4-(1H-imidazol-1-yl)pheny 1)-2-(6-azaspiro[2.5]octan-6-yl)benzamide], the 50% inhibitory concentration (IC50) on recombinant human KIF18A came out at 88 nM.
Consider `CCS(=O)(=O)Nc1ccc(C(=O)Nc2ccc(-c3ncc[nH]3)c(N3CCC(C)(O)CC3)c2)c(N2CCC3(CC2)CC3)c1` [Example 43, 4-(ethylsulfonamido)-N-(3-(4-hydroxy-4-methylpiperidin-1-yl)-4-(1H-imidazol-2-yl)pheny 1)-2-(6-azaspiro[2.5]octan-6-yl)benzamide], for which the IC50 in the assay with OVCAR-3 cells is 18.8 nM; at recombinant human KIF18A, 115 nM.
On the same counts, the results for `CCS(=O)(=O)Nc1ccc(C(=O)Nc2ccc(-n3ccnc3)c(C3(O)CCC(F)(F)CC3)c2)c(N2CCC3(CC2)CC3)c1` [Example 44, N-(3-(4,4-difluoro-1-hydroxycyclohexyl)-4-(1H-imidazol-1-yl)phenyl)-4-(ethylsulfonamido)-2-(6-azaspiro[2.5]octan-6-yl)benzamide] are 45.5 nM and 130 nM.
In the case of `CCS(=O)(=O)Nc1ccc(C(=O)Nc2ccc(-c3ccnnc3)c(OC3CC(F)(F)C3)c2)c(N2CCC3(CC2)CC3)c1` [Example 48, N-(3-(3,3-difluorocyclobutoxy)-4-(pyridazin-4-yl)phenyl)-4-(ethylsulfonamido)-2-(6-azaspiro[2.5]octan-6-yl)benzamide], the figures for the IC50 with OVCAR-3 cells and on recombinant human KIF18A were 14.4 nM and 102 nM, respectively.
On the same counts, the results for `CCS(=O)(=O)Nc1ccc(C(=O)Nc2ccc(-c3nnco3)c(OC3CC(F)(F)C3)c2)c(N2CCC3(CC2)CC3)c1` [Example 50, N-(3-(3,3-difluorocyclobutoxy)-4-(1,3,4-oxadiazol-2-yl)phenyl)-4-(ethylsulfonamido)-2-(6-azaspiro[2.5]octan-6-yl)benzamide] are 19.1 nM and 74.3 nM.
On the same counts, the results for `CCS(=O)(=O)Nc1ccc(C(=O)Nc2ccc(-c3nnco3)c(OCC(F)(F)F)c2)c(N2CCC3(CC2)CC3)c1` [Example 51, N-(4-(1,3,4-oxadiazol-2-yl)-3-(2,2,2-trifluoroethoxy)phenyl)-4-(ethylsulfonamido)-2-(6-azaspiro[2.5]octan-6-yl)benzamide] are 27.4 nM and 107 nM.
On the same counts, the results for `CCS(=O)(=O)Nc1ccc(C(=O)Nc2ccc(-c3nnc(C)o3)c(OCC(F)(F)F)c2)c(N2CCC3(CC2)CC3)c1` [Example 52, 4-(ethylsulfonamido)-N-(4-(5-methyl-1,3,4-oxadiazol-2-yl)-3-(2,2,2-trifluoroethoxy)phenyl) -2-(6-azaspiro[2.5]octan-6-yl) benzamide] are 17.9 nM and 125 nM.
Turning to `[2H]C([2H])([2H])Oc1ccc(NC(=O)c2ccc(NS(=O)(=O)CC)cc2N2CCC3(CC2)CC3)cc1N1CCC(F)(F)CC1` [Example 57, N-(3-(4,4-difluoropiperidin-1-yl)-4-(methoxy-d3)phenyl)-4-(ethylsulfonamido)-2-(6-azaspiro[2.5]octan-6-yl)benzamide], the IC50 in the assay with OVCAR-3 cells turned out to be 8.7 nM; in the assay with HT-29 cells, 4.5 nM.

For orientation: IC50 means the midpoint of a concentration-inhibition curve.
